Results published in PMC9318133 (International Journal of Molecular Sciences, 2022).

Assays:
[1] = target: T1, human CB1 receptors (Homo sapiens, UniProt P21554); assay: [3H]-CP-55,940 competition binding, CHO cell membranes transfected with human CB1 receptors
T1 construct: host or cells: CHO cells
Description: To obtain membranes, cells were washed with phosphate-buffered saline (PBS) and scraped off with ice-cold hypotonic buffer (5 mM Tris HCl, 2 mM EDTA, pH 7.4). The cell suspension was homogenized with a Polytron and then centrifuged for 30 min at 40,000× g. The membrane pellet was suspended in 50 mM Tris HCl buffer (pH 7.4) containing 2.5 mM ethylenediaminetetraacetic acid (EDTA), 5 mM MgCl2, and 0.5 mg/mL bovine serum albumin (BSA) for CB1 receptors or in 50 mM Tris HCl (pH 7.4), 1 mM EDTA, 5 mM MgCl2, and 0.5% BSA for CB2 receptors.
For human cannabinoid receptors, membranes obtained from CHO cells transfected with human CB1 or CB2 receptors (2 µg protein/100 µL) were used. Competition binding experiments at murine cannabinoid receptors were performed with mouse brain membranes (40 µg protein/100 µL) or with mouse spleen membranes (80 µg protein/100 µL) for CB1 receptors or CB2 receptors, respectively. […] Bound and free radioactivity were separated by filtering the assay mixture through Whatman GF/C glass fiber filters using a Brandel cell harvester (Brandel Instruments, Unterföhring, Germany).
The protein concentration was determined according to a Bio-Rad method with bovine serum albumin as a reference standard. Inhibitory binding constants, Ki, were calculated from the IC50 values according to the Cheng and Prusoff equation:Ki = IC50/(1 + [C*]/KD*) where [C*] is the concentration of the radioligand and KD* its dissociation constant. Functional experiments were analyzed by non-linear regression analysis using the equation for a sigmoid concentration–response curve (GraphPad Prism, San Diego, CA, USA). All the data are expressed as the mean ± SEM of three independent experiments.

[2] = system: fEPSP of CA1 area of mouse hippocampal slice; assay: Electrophysiological recording of fEPSP in hippocampal slices; assay type: cell-based; settings: for fEPSP slope, % changes compared to control condition: steady state
Description: Procedures for tissue preparation are the same as those described by Ossato et al., 2016 [45]. In brief, after mouse decapitation, the head was immediately chilled in refrigerated artificial cerebrospinal fluid (aCSF, 0 °C) of the following composition (in mM): NaCl, 126; KCl, 2; KH2PO4, 1.25; NaHCO3, 26; MgSO4, 2.0; CaCl2, 2.5; d-glucose, 10. After 1 min, the brain was extracted to isolate the hippocampus and then placed in ice-cold artificial cerebrospinal fluid (aCSF). All solutions were saturated with 95% O2/5% CO2. Transverse hippocampal slices (425 μm thick) were cut with a tissue chopper and then placed for almost 90 min in a Haas-style incubation chamber for recovery before recording.
A single slice was transferred into a submerged-type recording chamber (3 mL total volume) and continuously superfused (3.0 mL/min) with warmed (32–33 °C) aCSF. WINLTP 2.10 computer software was used for stimulus triggering, PC recording, and analysis. Synaptic responses of CA1 pyramidal neurons were elicited by electrical stimulation of the Schaffer collateral/commissural pathway. Single stimulation pulses (80 µs duration; 0.05 Hz) were delivered by mean of a concentric bipolar electrode (o.d. 125 μm, FHC, USA) connected to a Grass S11 stimulator driving a PSIU6 constant current stimulus isolation unit. To record the fEPSPs, borosilicate glass electrodes fabricated using a microelectrode puller (P97, Sutter Instruments) and filled with aCSF (1.5 ± 0.5 MΩ), inserted in the distal third of the stratum radiatum and 200–300 µm away from stimulating electrodes, were used. The maximal fEPSPs response was reached by adjusting the recording electrode depth. Recorded potentials were amplified (Axoprobe 1A DC-coupled—Cyberamp 320, Molecular Devices, Sunnyvale, CA, USA) and filtered (5.0 kHz) prior to A/D conversion. Upon 10 min of stable synaptic response, a stimulus–response curve (SRC) was generated as previously described to extrapolate a stimulation intensity evoking 70% of maximal fEPSP, to be used throughout the experiment. […] To investigate whether the vehicle had any effect on synaptic activity, the superfusion inlet was switched to a reservoir containing aCSF plus the amount of vehicle present for the corresponding drug concentration (sham application), before switching to the solution also including the drug, for comparison. All reservoirs and tubing were on glass or Teflon to avoid the capturing of cannabinoids by plastic or silicon parts.
We analyzed data from in vitro recordings as previously described. […] Effect of treatment was considered steady state when stable +/− 5% for 10 min.

[3] = Plasma (and brain) levels of JWH-175 and JWH-018 in mice by LC-MS/MS; assay type: in vivo, mouse; settings: for presence in the brain tissue of mice systemically treated with JWH-175: data not shown
Description: For the in vivo studies, three different groups of mice were selected. […] Urine specimens were collected from mice individually placed inside metabolic cages (Ugo Basile SRL, Gemonio (VA), Italy) with free access to water and food. The same dose of JWH-175 was administered to the second group, and behavioral tests were performed before the blood collection. Tests and sampling were carried out, at 0, 30, 60, and 300 min, on a sub-group of six mice at each time interval. The same behavioral studies and blood sampling were performed on the third group, to which JWH-018 (10 mg/kg) was injected. Blood samples (mean total volume: 500 μL) were collected by submandibular blood collection technique into 1 mL vials containing EDTA (4 mg/mL of blood) as preservative and anticoagulant. After each blood withdrawal, an equal volume of saline solution was subcutaneously injected into mice to maintain volume and osmotic homeostasis. Plasma from collected blood and urine samples were stocked at −20 °C until the analysis.
For blood metabolic profile, samples were centrifugated at 9000× g rpm for 8 min to obtain plasma. Then, 200 µL of the supernatant was added to 500 μL of acetonitrile and centrifugated at 13,000× g rpm for 3 min. The aqueous layer was then collected and added to 50 μL of internal standard solution (10 μg/mL) and 500 μL of phosphate buffer (0.8 M, pH 7.4). Samples were then incubated for 1 h at 55 °C. After hydrolysis, samples were extracted with 5 mL of ethyl acetate. The organic solvent was then dried under nitrogen flow at 40 °C, and the dry residue was resolved in 50 μL of mobile phase and an aliquot of 10 µL was injected into the LC-MS systems.
Samples were analyzed using an Agilent 1200 series high-performance liquid chromatography (HPLC) instrument equipped with a SUPELCO C18 column (15 cm × 2.1 mm × 5 µm) coupled with a Sciex 5500QTRAP triple quadrupole mass spectrometer (Sciex, Milan, Italy) with an ESI source operated in positive ionization mode. Analyses were carried out at a constant flow rate of 250 µL/min using ultra-purified water, 0.1% formic acid (A), and acetonitrile 0.1% formic acid (B) as mobile phase. The gradient started at 5% eluent B, was increased to 65% eluent B in 7 min and after 4 min to 95% eluent B in 2 min, held for 4.5 min, decreased to starting conditions of 5% eluent B in 0.31 min, and held for 2 min for re-equilibration
Multiple reaction monitoring (MRM) was used as the acquisition mode (see Table 3). The MRM method was optimized starting from the protocol employed in our laboratory.

T1 sequence (P21554 whole entry): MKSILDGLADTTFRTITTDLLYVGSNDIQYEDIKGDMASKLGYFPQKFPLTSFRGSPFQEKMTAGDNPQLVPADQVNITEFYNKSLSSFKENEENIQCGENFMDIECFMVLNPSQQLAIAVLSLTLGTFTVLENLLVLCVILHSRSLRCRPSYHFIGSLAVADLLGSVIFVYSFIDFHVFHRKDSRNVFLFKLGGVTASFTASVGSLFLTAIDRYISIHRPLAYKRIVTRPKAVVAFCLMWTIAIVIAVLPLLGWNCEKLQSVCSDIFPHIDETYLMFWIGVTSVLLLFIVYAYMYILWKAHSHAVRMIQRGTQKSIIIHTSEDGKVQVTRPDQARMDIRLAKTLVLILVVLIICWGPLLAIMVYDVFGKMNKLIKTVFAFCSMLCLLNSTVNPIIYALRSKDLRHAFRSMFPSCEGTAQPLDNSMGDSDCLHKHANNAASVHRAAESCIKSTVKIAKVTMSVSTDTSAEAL

SMILES	selectivity index (ratio between the Ki value to human CB2 and the Ki value to human CB1) ([1]; human CB2 / human CB1)	fold higher affinity than JWH-175 at human CB1 receptors ([1]; ratio of Ki values, CHO cell membranes) [fold]	fEPSP slope, % changes compared to control condition ([2]; 0.1 µM) [%]	fEPSP slope, % changes compared to control condition ([2]; 0.3 µM) [%]	fEPSP slope, % changes compared to control condition ([2]; 1 µM, last 3 min of recording) [%]	time of peak plasmatic concentration of JWH-018 ([3]; JWH-018 10 mg/kg i.p., mouse plasma) [min]	presence in the brain tissue of mice systemically treated with JWH-175 [3]	Ki [1] [nM]	effect on fEPSP ([2]; 0.01−0.3 µM)	times less potent than JWH-018 in inhibiting fEPSP ([2]; CA1 hippocampal slices, 0.01–1 µM)	time after administration within which JWH-175 itself was detected in plasma ([3]; JWH-175 10 mg/kg i.p., mouse plasma) [min]
CCCCCn1cc(C(=O)c2cccc3ccccc23)c2ccccc21 [JWH-018, 1-naphthalenyl(1-pentyl-1H-indol-3-yl)-methanone]	0.9	2.71	−34.7 ± 7.9	−40.4 ± 8.4	−48.8 ± 7.6	30	presence	–	–	–	–
CCCCCn1cc(Cc2cccc3ccccc23)c2ccccc21 [JWH-175, 3-(1-naphthalenylmethyl)-1-pentyl-1H-indole]	–	–	–	–	−23.7 ± 5.7	–	only traces	25.8 ± 1.9	failed to affect fEPSP	about 10 times	≤ 30
